From paper PMC3958412, “Proteasome Dysfunction Mediates High Glucose-Induced Apoptosis in Rodent Beta Cells and Human Islets” (PLoS ONE, 2014)
Residues, ends and D or L forms follow the SMILES beside them. *: point of attachment. Cbz = O=C(OCc1ccccc1)*

What was measured:
Type in all cases: cell-based
[1] = target: T1, 20S proteasome β1 subunit (caspase-like activity) (Rattus norvegicus, UniProt P28073); test: caspase-like activity (Z-LLE-MCA cleavage) in lysates of INS-1E cells treated with […] MG-132; conditions: read-out: % inhibition at 150 nM
T1 construct: gene Psmb6; with other subunits of the 20S/26S proteasome
T1 sequence (P28073 34-238): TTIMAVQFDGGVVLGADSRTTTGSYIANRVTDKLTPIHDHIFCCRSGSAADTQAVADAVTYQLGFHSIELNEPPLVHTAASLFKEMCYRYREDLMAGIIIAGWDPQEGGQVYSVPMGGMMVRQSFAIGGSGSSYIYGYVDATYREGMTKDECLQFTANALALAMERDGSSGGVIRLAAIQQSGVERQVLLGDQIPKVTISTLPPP

[2] = target: T2, 20S proteasome β5 subunit (chymotrypsin-like activity) (Rattus norvegicus, UniProt P28075); test: chymotrypsin-like activity (Suc-LLVY-MCA cleavage) in lysates of MG-132-treated INS-1E cells, dose-response
T2 construct: gene Psmb5; with other subunits of the 20S/26S proteasome
T2 sequence (P28075 60-263): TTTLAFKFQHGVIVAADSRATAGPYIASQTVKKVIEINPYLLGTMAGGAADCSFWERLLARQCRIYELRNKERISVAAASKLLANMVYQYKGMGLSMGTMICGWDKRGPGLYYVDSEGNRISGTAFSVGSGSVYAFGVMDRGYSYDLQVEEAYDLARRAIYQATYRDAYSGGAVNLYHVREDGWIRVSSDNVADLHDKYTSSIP

[3] = target: T3, 20S proteasome β2 subunit (trypsin-like activity) (Rattus norvegicus, UniProt Q9JHW0); test: trypsin-like activity (Z-ARR-MCA cleavage) in lysates of INS-1E cells treated with […] MG-132; conditions: read-out: % inhibition at 150 nM
T3 construct: gene Psmb7; with other subunits of the 20S/26S proteasome
T3 sequence (Q9JHW0 44-277): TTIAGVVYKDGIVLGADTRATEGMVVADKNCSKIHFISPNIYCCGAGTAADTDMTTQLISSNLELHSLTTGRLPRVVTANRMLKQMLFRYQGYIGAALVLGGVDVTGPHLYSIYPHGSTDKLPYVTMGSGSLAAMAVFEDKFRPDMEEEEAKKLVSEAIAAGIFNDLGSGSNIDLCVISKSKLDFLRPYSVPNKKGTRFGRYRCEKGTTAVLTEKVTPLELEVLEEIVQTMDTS

Compound `CC(C)C[C@@H](C=O)NC(=O)[C@H](CC(C)C)NC(=O)[C@H](CC(C)C)NC(=O)OCc1ccccc1` [MG-132] (Cbz-Leu-Leu-Leu-aldehyde) has an inhibition at 0.15 µM [1] of 80%, a Ki [2] of 50 nM and an inhibition at 0.15 µM [3] of 50%.
